# Laboratory results as given in paper PMC7935113, “Development and in vivo evaluation of intranasal formulations of parathyroid hormone (1-34)” (Drug Delivery, 2021).
# Where two headings read alike, the source gives them in different places.
# What was measured:
# [1] = system: Human nasal epithelial cells (HNEpCs); settings: MTT, n = 8
# Description: Human nasal epithelial cells (HNEpCs) purchased from the American Type Culture Collection (Rockville, MD, USA) were used as an in vitro model of the nasal mucosa. The cells were cultured in culture medium (Eagle’s minimum essential medium (MEM) supplemented with 10% (v/v) fetal bovine serum (FBS) and 1% penicillin/streptomycin solution) and maintained in 5% CO2/95% humidified air at 37 °C.
# HNEpCs were seeded at a density of 5 × 10^3 cells/well in 96-well plates (Corning, NY, USA) and cultured for 24 h before the experiment. […] The culture medium was used as a negative control, and 20% dimethyl sulfoxide (DMSO) was used as a positive control. Following 6 h of incubation, the test solutions were removed, and the cytotoxicity was determined using a commercial MTT kit. The cells were washed, and then, MTT reagent in culture medium was added for a further 3 h incubation at 37 °C. The remaining media was removed, and 200 μL DMSO was added to each well to dissolve the formazan crystals. The resulting absorbance was read at 490 nm.
# HNEpCs = test: Cellular internalization of FITC-PTH; assay type: cell-based, human
# Description: A 20 μg/mL FITC-PTH solution without any permeation enhancer was used as a negative control, and a 20 μg/mL FITC-PTH solution supplemented with 0.1% Triton X-100 was used as a positive control. The test solutions were added to the corresponding wells, and the amount of cellularly internalized PTH was measured after 30 min following sample applications. […] Finally, the cells were lysed with cell lysis buffer. The resulting lysis products were collected for fluorescence measurement and protein content measurement. The fluorescence measurement was carried out using a Varioskan LUX multimode microplate reader with ex/em 485/518 nm, and the protein content was measured by using a commercial BCA protein assay kit (Solarbio Life Sciences). The amount of internalized PTH(1-34) in each well was normalized to the protein content.
# HNEpC monolayers = test: Effect of permeation enhancers on TEER of HNEpC monolayers; assay type: cell-based, human; settings: HNEpC monolayer, apical application, all solutions (0.005%, 0.010%, 0.015%), n = 8
# Description: (§1) HNEpCs were seeded at a density of 10 × 10^4 cells/well on Transwell® supports with a pore size of 0.4 μm. TEER (Ω·cm^2) was determined using a Millicell electrical resistance system (ERS) voltohmmeter (Millipore, Bedford, MA, USA). Cell monolayers with TEER values exceeding 500 Ω·cm^2 were used for further experiments. […] Prior to the permeability experiment, the cell monolayers were equilibrated with 1.0 mL Hank’s balanced salt solution (HBSS) in the basolateral compartment and 0.4 mL culture medium in the apical chamber for 30 min. Subsequently, the apical culture medium was withdrawn, and 0.2 mL solution of a test solution was applied. Thereafter, 200 μL receiver samples from the basolateral compartment were taken every 30 min for 4 h, and then, 200 μL fresh HBSS was added to the basolateral compartment. Finally, the FITC-PTH concentration in the collected samples was analyzed using a Varioskan LUX multimode microplate reader with ex/em 485/518 nm.
# HNEpC monolayers were cultured as described above. The baseline TEER was measured before the experiment for 60 min. […] A chitosan solution at 0.003% w/v in culture medium was used as a positive control. The results for each experiment are presented as percentages relative to their respective baseline TEER.
# HNEpC layers = test: Permeability of FITC-PTH across HNEpC layers (Transwell); assay type: in vitro ADME, human; settings: HNEpC monolayer, apical to basolateral, 10 μg/mL FITC-PTH, all tested concentrations (0.015%, 0.010% and 0.005%), fluorescence
# Description: as §1, with “HNEpCs” left out, “Hank's” for “Hank’s”, “compartment.” for “compartment. Finally, the FITC-PTH concentration in the collected samples was analyzed using a Varioskan LUX multimode microplate reader with ex/em 485/518 nm.”
# nasal septum mucosae [2] = test: Nasal mucosal toxicity: mucosa morphology (SEM) after intranasal dosing; settings: SD rats, citric acid solutions (0.2-0.6%), 15 consecutive days
# Description: (§2) Mucosa morphology was considered a direct indicator of nasal mucosal toxicity. […] This mucosa morphology study was performed in vivo using healthy male SD rats. The rats were lightly anesthetized with diethyl ether and intranasally administered test solutions. Generally, 0.1 mL of the corresponding solution was equally administered to the two nostrils of one rat for 15 consecutive days. Finally, 2 days after stopping intranasal administration, the rats were sacrificed by an intraperitoneal injection of urethane and their hearts were perfused with saline. The nasal septum mucosae were then carefully peeled off, fixed with 3% w/v glutaraldehyde (diluted by PBS), and dehydrated with a gradient of ethanol. Finally, the fixed nasal mucosae were dried at the CO2 critical point, sprayed with ion sputtering, and observed under SEM.
# nasal septum mucosae [3] = settings: rat, in vivo
# Description: as §2
# [4] = cited from earlier work
# [5] = Chemical stability of PTH(1-34) in aqueous buffer solutions at 40 °C (HPLC); assay type: physicochemical
# Description: HPLC measurements were performed with an HPLC instrument equipped with a photodiode array detector. A C-18 column (Cosmosil 250 × 4.6 mm, 5 µm, Japan) was used, and the sample solutions were applied via an autosampler (Merck-Hitachi, Darmstadt, Germany). Analysis of PTH(1-34) and its degradation products was performed under the following conditions. Mobile phase A was 0.1% (v/v) TFA in acetonitrile, and mobile phase B was 0.1% TFA (v/v) in water. […] A detection wavelength of 214 nm and column temperature of 25 °C were used.
# Stability studies were carried out to clarify the influence of aqueous solvent on the stability of PTH(1-34) during storage and to determine the optimal aqueous environment. First, PBS and ABS were prepared as solvent solutions: 0.063 M PBS was prepared by dissolving 3.73 g sodium dihydrogen phosphate and 36.55 g disodium hydrogen phosphate in 1000 mL Milli-Q water; 0.032 M ABS was prepared as by dissolving 0.664 g glacial acetic acid and 1.64 g sodium acetate trihydrate together in 1000 mL Milli-Q water. Then, 0.016 M ABS, 0.008 M ABS, and 0.004 M ABS were prepared by diluting 0.032 M ABS with Milli-Q water. Following preparation, the pH values of the PBS and ABS solutions were measured using a pH meter (Mettler Toledo FiveEasy Plus).
# To examine the stability of peptides in each aqueous medium, 3 mg/mL PTH(1-34) was separately incubated in 0.063 M PBS, 0.032 M ABS, 0.016 M ABS, 0.008 M ABS and 0.004 M ABS. Aliquots of PTH(1-34) were individually incubated at 40 °C, and the PTH(1-34) content was analyzed at 0, 6, 12, 24, 36, 48, 60 and 72 h postincubation. In addition, the impurities of PTH(1-34) in the 0.032 M ABS, 0.016 M ABS, 0.008 M ABS and 0.004 M ABS solutions were quantified by HPLC at the time points of 0, 24, 72 and 120 h postincubation at 40 °C.
# [6] = Isoelectric point by capillary electrophoresis; assay type: physicochemical; settings: authors' previous capillary electrophoresis (CE) analysis, no reference given
# From the text: The essential point for the development of a liquid PTH(1-34) formulation was ensuring the stability of PTH(1-34). In this context, the aqueous environment was screened by utilizing MD simulations and HPLC analysis. In recent decades, MD simulations have been increasingly reported to investigate the conformational equilibria of polypeptides in solution (Colombo et al., [2002]). […] The HPLC analysis results further confirmed that PTH(1-34) had the best chemical stability in 0.008 M ABS. According to our previous capillary electrophoresis (CE) analysis, the isoelectric point (pI) of PTH(1-34) is approximately pH 7.77, indicating easy solubility and stability under acidic condition. The pH values of PBS and ABS were 7.4 and 4.0, respectively. Consequently, 0.008 M ABS had the best stability performance, most likely due to its acidic pH value and low ionic strength.
compound,measurement,setting,value
"C[S+](C)[O-] [DMSO, dimethyl sulfoxide]",HNEpC viability,"[1]; 6 h, 20% DMSO positive control, vs culture medium",statistically lower
O=C(O)CC(O)(CC(=O)O)C(=O)O [citric acid],HNEpC viability,"[1]; 6 h exposure, concentration of 0.1%",73.03%
same,HNEpC viability,"[1]; 6 h exposure, concentrations of 0.01% and 0.05%, vs culture medium",comparable with that of the negative control
same,cellular internalization of FITC-PTH (normalized to protein content),"HNEpCs; 20 μg/mL FITC-PTH with 0.005%, 0.010%, 0.015% enhancer, 30 min, fluorescence 485/518 nm, n = 8",did not exhibit an obvious promotion effect
same,time point of TEER reversal to the baseline level,HNEpC monolayers,40 min
same,duration of enhanced permeation rate of FITC-PTH relative to control,HNEpC layers,60 min
same,observations in rats during intranasal administration,nasal septum mucosae [2],bleeding of the nose was observed
Triton X-100,cellular internalization of FITC-PTH (normalized to protein content),"HNEpCs; 20 μg/mL FITC-PTH with 0.1% Triton X-100, positive control",significantly promoted
macrogol 15-hydroxystearate [Kolliphor® HS·15],observations in rats during intranasal administration,nasal septum mucosae [3],did not induce any observed discomfort
nafarelin,bioavailability,[4]; in vivo,lower than 3%
parathyroid hormone (1-34) [PTH(1-34)],impurities of PTH(1-34),"[5]; 3 mg/mL in 0.008 M ABS compared with 0.032, 0.016 and 0.004 M ABS, 120 h, HPLC",lowest amount of impurities
same,PTH(1-34) content,"[5]; chemical stability, 3 mg/mL in 0.032, 0.016, 0.008 and 0.004 M ABS (pH 4.0), up to 72 h, HPLC UV 214 nm",no detectable decrease
same,content of PTH(1-34),"[5]; chemical stability, 3 mg/mL in 0.063 M PBS (pH 7.4), after 72 h of incubation, HPLC UV 214 nm",76.34%
same,isoelectric point (pI),[6],~7.77 pH
salmon calcitonin,bioavailability,"[4]; intranasal peptide formulations devoid of permeation enhancers, ref Ozsoy et al., [2009]",lower than 3%
